According to patent US20240327463A1, “ANTIBACTERIAL PRODUCTS” (priority 2017, published 2024):
Values after ≈ are worked out from the molar mass of the structure shown. Bridge positions count the residues as written; N and C are the ends. Square brackets hold non-standard residues; d marks the D form. Peptide text beside a SMILES is read from it. ξ: configuration not given here. dNMeF = CN[C@H](Cc1ccccc1)C(=O)O; Ile(3ξ) = CCC(C)[C@H](N)C(=O)O; Chg = N[C@H](C(=O)O)C1CCCCC1; Nva = CCC[C@H](N)C(=O)O

Test system: MRSA ATCC 33591
Details: ATCC 33591
Protocol: For MIC testing all peptides were dissolved in DMSO (according to the method of L. L. Ling, et al., Nature 2015, 517, 455-459). Bacteria were grown on Mueller Hinton broth (oxoid). All incubations were at 37° C. Dilutions were carried out using Mueller Hinton. 100 μl of autoclaved Mueller Hinton broth was added to wells 2-12 on a 96-well plate. 200 μl of the peptide was added to well one at a concentration of 512 μg/ml. 100 μl of peptide in well one was taken up and pipetted into well two. The mixture was then mixed via pipetting before 100 μl was taken up and pipetted into well three. This process was repeated up to well 11. […] This was repeated three times. The 96-well plates were then incubated for 24 hours. The MIC was determined to be the lowest concentration at which there was no growth visible.

Row | MIC (MRSA*) | MIC (MRSA) | SMILES
1 | >128 µg/mL |  | CC[C@@H](C)[C@@H](NC(=O)[C@@H](CCC(N)=O)NC(=O)[C@H](CO)NC(=O)[C@@H](NC(=O)[C@@H](C)NC(C)=O)[C@@H](C)CC)C(=O)N[C@H](C(=O)N[C@@H](CO)C(=O)N[C@H]1C(=O)N[C@@H](C)C(=O)N[C@@H](CCCNC(=N)N)C(=O)N[C@@H]([C@@H](C)CC)C(=O)O[C@H]1C)[C@@H](C)CC [Compound 7]
2 | >128 µg/mL |  | CC[C@@H](C)[C@@H](NC(=O)[C@@H](CCC(N)=O)NC(=O)[C@H](CO)NC(=O)[C@H](C)NC(=O)[C@@H](Cc1ccccc1)NC)C(=O)N[C@H](C(=O)N[C@@H](CO)C(=O)N[C@H]1C(=O)N[C@@H](C)C(=O)N[C@@H](CCCNC(=N)N)C(=O)N[C@@H]([C@@H](C)CC)C(=O)O[C@H]1C)[C@@H](C)CC [Compound 8] (H-[dNMeF]AS[dQ][dI]IS[dT]ARI; ester 8-C)
3 | 1 to 2 µg/mL |  | CC[C@@H](C)[C@@H](NC(=O)[C@@H](CCC(N)=O)NC(=O)[C@H](C)NC(=O)[C@@H](NC(=O)[C@@H](Cc1ccccc1)NC)[C@@H](C)CC)C(=O)N[C@H](C(=O)N[C@@H](CO)C(=O)N[C@H]1C(=O)N[C@@H](C)C(=O)N[C@@H](CCCNC(=N)N)C(=O)N[C@@H]([C@@H](C)CC)C(=O)O[C@H]1C)[C@@H](C)CC [Compound 9] (H-[dNMeF]IA[dQ][dI]IS[dT]ARI; ester 8-C)
4 | 2 to 4 µg/mL |  | CC[C@@H](C)[C@@H](NC(=O)[C@@H](C)NC(=O)[C@H](CO)NC(=O)[C@@H](NC(=O)[C@@H](Cc1ccccc1)NC)[C@@H](C)CC)C(=O)N[C@H](C(=O)N[C@@H](CO)C(=O)N[C@H]1C(=O)N[C@@H](C)C(=O)N[C@@H](CCCNC(=N)N)C(=O)N[C@@H]([C@@H](C)CC)C(=O)O[C@H]1C)[C@@H](C)CC [Compound 10] (H-[dNMeF]IS[dA][dI]IS[dT]ARI; ester 8-C)
5 | >128 µg/mL |  | CC[C@@H](C)[C@@H](NC(=O)[C@@H](CCC(N)=O)NC(=O)[C@H](CO)NC(=O)[C@@H](NC(=O)[C@@H](Cc1ccccc1)NC)[C@@H](C)CC)C(=O)N[C@@H](C)C(=O)N[C@@H](CO)C(=O)N[C@H]1C(=O)N[C@@H](C)C(=O)N[C@@H](CCCNC(=N)N)C(=O)N[C@@H]([C@@H](C)CC)C(=O)O[C@H]1C [Compound 12] (H-[dNMeF]IS[dQ][dI]AS[dT]ARI; ester 8-C)
6 | 16 to 32 µg/mL |  | CC[C@@H](C)[C@@H](NC(=O)[C@@H](CCC(N)=O)NC(=O)[C@H](CO)NC(=O)[C@@H](NC(=O)[C@@H](Cc1ccccc1)NC)[C@@H](C)CC)C(=O)N[C@H](C(=O)N[C@@H](C)C(=O)N[C@H]1C(=O)N[C@@H](C)C(=O)N[C@@H](CCCNC(=N)N)C(=O)N[C@@H]([C@@H](C)CC)C(=O)O[C@H]1C)[C@@H](C)CC [Compound 13, reference compound] (H-[dNMeF]IS[dQ][dI]IA[dT]ARI; ester 8-C)
7 | 32 µg/mL (≈ 27.6 µM) |  | CC[C@@H](C)[C@@H](NC(=O)[C@@H](CCC(N)=O)NC(=O)[C@H](CO)NC(=O)[C@@H](NC(=O)[C@@H](Cc1ccccc1)NC)[C@@H](C)CC)C(=O)N[C@H](C(=O)N[C@@H](CO)C(=O)N[C@H]1C(=O)N[C@@H](C)C(=O)N[C@H](C)C(=O)N[C@@H]([C@@H](C)CC)C(=O)O[C@H]1C)[C@@H](C)CC [Compound 15]
8 | 2 µg/mL (≈ 1.75 µM) |  | CC[C@@H](C)[C@@H](NC(=O)[C@@H](CCC(N)=O)NC(=O)[C@H](CO)NC(=O)[C@@H](NC(=O)[C@@H](Cc1ccccc1)NC)[C@@H](C)CC)C(=O)N[C@H](C(=O)N[C@@H](CO)C(=O)N[C@H]1C(=O)N[C@@H](C)C(=O)NCC(=O)N[C@@H]([C@@H](C)CC)C(=O)O[C@H]1C)[C@@H](C)CC [Compound 16, Gly10-teixobactin]
9 |  | 0.5 µg/mL (≈ 0.385 µM) | CCC(C)[C@@H]1NC(=O)[C@H](C)NC(=O)[C@H](NC(=O)[C@H](CO)NC(=O)[C@@H](NC(=O)[C@H](NC(=O)[C@@H](CCCNC(=N)N)NC(=O)[C@H](CCCNC(=N)N)NC(=O)[C@@H](NC(=O)[C@@H](Cc2ccccc2)NC)[C@@H](C)CC)[C@H](C)CC)[C@@H](C)CC)[C@H](C)OC(=O)[C@H]([C@@H](C)CC)NC1=O (stereo partly drawn) [Compound 35, Arg3-D-Arg4-Ile10-teixobactin] (H-[dNMeF]IR[dR][dI]IS[dT]A[Ile(3ξ)]I; ester 8-C)
10 |  | 0.25 µg/mL (≈ 0.204 µM) | CC[C@@H](C)[C@@H](NC(=O)[C@@H](CCC(N)=O)NC(=O)[C@H](CO)NC(=O)[C@@H](NC(=O)[C@@H](Cc1ccccc1)NC)[C@@H](C)CC)C(=O)N[C@H](C(=O)N[C@@H](CO)C(=O)N[C@H]1C(=O)N[C@@H](C)C(=O)N[C@@H](C2CCCCC2)C(=O)N[C@@H]([C@@H](C)CC)C(=O)O[C@H]1C)[C@@H](C)CC [Compound 36, Chg10-teixobactin]
11 |  | 0.5 µg/mL (≈ 0.386 µM) | CC[C@@H](C)[C@@H](NC(=O)[C@@H](CCC(N)=O)NC(=O)[C@H](CCCNC(=N)N)NC(=O)[C@@H](NC(=O)[C@@H](Cc1ccccc1)NC)[C@@H](C)CC)C(=O)N[C@H](C(=O)N[C@@H](CO)C(=O)N[C@H]1C(=O)N[C@@H](C)C(=O)N[C@@H](C2CCCCC2)C(=O)N[C@@H]([C@@H](C)CC)C(=O)O[C@H]1C)[C@@H](C)CC [Compound 37, Arg3-Chg10-teixobactin]
12 |  | 0.5 µg/mL (≈ 0.398 µM) | CC[C@@H](C)[C@@H](NC(=O)[C@@H](CCCNC(=N)N)NC(=O)[C@H](CO)NC(=O)[C@@H](NC(=O)[C@@H](Cc1ccccc1)NC)[C@@H](C)CC)C(=O)N[C@H](C(=O)N[C@@H](CO)C(=O)N[C@H]1C(=O)N[C@@H](C)C(=O)N[C@@H](C2CCCCC2)C(=O)N[C@@H]([C@@H](C)CC)C(=O)O[C@H]1C)[C@@H](C)CC [Compound 38, D-Arg4-Chg10-teixobactin]
13 |  | 1 µg/mL (≈ 0.762 µM) | CC[C@@H](C)[C@@H](NC(=O)[C@@H](CCC(N)=O)NC(=O)[C@H](CO)NC(=O)[C@@H](NC(=O)[C@@H](Cc1ccccc1)NC)[C@@H](C)CC)C(=O)N[C@H](C(=O)N[C@@H](CO)C(=O)N[C@H]1C(=O)N[C@@H](CCCNC(=N)N)C(=O)N[C@@H](C2CCCCC2)C(=O)N[C@@H]([C@@H](C)CC)C(=O)O[C@H]1C)[C@@H](C)CC [Compound 39, Arg9-Chg10-teixobactin]
14 |  | 1 µg/mL (≈ 0.755 µM) | CC[C@@H](C)[C@@H](NC(=O)[C@@H](CCCNC(=N)N)NC(=O)[C@H](CCCNC(=N)N)NC(=O)[C@@H](NC(=O)[C@@H](Cc1ccccc1)NC)[C@@H](C)CC)C(=O)N[C@H](C(=O)N[C@@H](CO)C(=O)N[C@H]1C(=O)N[C@@H](C)C(=O)N[C@@H](C2CCCCC2)C(=O)N[C@@H]([C@@H](C)CC)C(=O)O[C@H]1C)[C@@H](C)CC [Compound 40, Arg3-D-Arg4-Chg10-teixobactin] (H-[dNMeF]IR[dR][dI]IS[dT]A[Chg]I; ester 8-C)
15 |  | 0.5 µg/mL (≈ 0.362 µM) | CC[C@@H](C)[C@@H](NC(=O)[C@@H](CCC(N)=O)NC(=O)[C@H](CCCNC(=N)N)NC(=O)[C@@H](NC(=O)[C@@H](Cc1ccccc1)NC)[C@@H](C)CC)C(=O)N[C@H](C(=O)N[C@@H](CO)C(=O)N[C@H]1C(=O)N[C@@H](CCCNC(=N)N)C(=O)N[C@@H](C2CCCCC2)C(=O)N[C@@H]([C@@H](C)CC)C(=O)O[C@H]1C)[C@@H](C)CC [Compound 41, Arg3-Arg9-Chg10-teixobactin] (H-[dNMeF]IR[dQ][dI]IS[dT]R[Chg]I; ester 8-C)
16 |  | 0.5 µg/mL (≈ 0.373 µM) | CC[C@@H](C)[C@@H](NC(=O)[C@@H](CCCNC(=N)N)NC(=O)[C@H](CO)NC(=O)[C@@H](NC(=O)[C@@H](Cc1ccccc1)NC)[C@@H](C)CC)C(=O)N[C@H](C(=O)N[C@@H](CO)C(=O)N[C@H]1C(=O)N[C@@H](CCCNC(=N)N)C(=O)N[C@@H](C2CCCCC2)C(=O)N[C@@H]([C@@H](C)CC)C(=O)O[C@H]1C)[C@@H](C)CC [Compound 42, D-Arg4-Arg9-Chg10-teixobactin] (H-[dNMeF]IS[dR][dI]IS[dT]R[Chg]I; ester 8-C)
17 |  | 64 µg/mL (≈ 45.4 µM) | CC[C@@H](C)[C@@H](NC(=O)[C@@H](CCCNC(=N)N)NC(=O)[C@H](CCCNC(=N)N)NC(=O)[C@@H](NC(=O)[C@@H](Cc1ccccc1)NC)[C@@H](C)CC)C(=O)N[C@H](C(=O)N[C@@H](CO)C(=O)N[C@H]1C(=O)N[C@@H](CCCNC(=N)N)C(=O)N[C@@H](C2CCCCC2)C(=O)N[C@@H]([C@@H](C)CC)C(=O)O[C@H]1C)[C@@H](C)CC [Compound 43, Arg3-D-Arg4-Arg9-Chg10-teixobactin] (H-[dNMeF]IR[dR][dI]IS[dT]R[Chg]I; ester 8-C)
18 |  | 0.5 µg/mL (≈ 0.421 µM) | CCC[C@@H]1NC(=O)[C@H](C)NC(=O)[C@H](NC(=O)[C@H](CO)NC(=O)[C@@H](NC(=O)[C@H](NC(=O)[C@@H](CCC(N)=O)NC(=O)[C@H](CO)NC(=O)[C@@H](NC(=O)[C@@H](Cc2ccccc2)NC)[C@@H](C)CC)[C@H](C)CC)[C@@H](C)CC)[C@H](C)OC(=O)[C@H]([C@@H](C)CC)NC1=O [Compound 44, Nva10-teixobactin]
19 |  | 1 µg/mL (≈ 0.796 µM) | CCC[C@@H]1NC(=O)[C@H](C)NC(=O)[C@H](NC(=O)[C@H](CO)NC(=O)[C@@H](NC(=O)[C@H](NC(=O)[C@@H](CCC(N)=O)NC(=O)[C@H](CCCNC(=N)N)NC(=O)[C@@H](NC(=O)[C@@H](Cc2ccccc2)NC)[C@@H](C)CC)[C@H](C)CC)[C@@H](C)CC)[C@H](C)OC(=O)[C@H]([C@@H](C)CC)NC1=O [Compound 45, Arg3-Nva10-teixobactin] (H-[dNMeF]IR[dQ][dI]IS[dT]A[Nva]I; ester 8-C)
20 |  | 0.25 µg/mL (≈ 0.206 µM) | CCC[C@@H]1NC(=O)[C@H](C)NC(=O)[C@H](NC(=O)[C@H](CO)NC(=O)[C@@H](NC(=O)[C@H](NC(=O)[C@@H](CCCNC(=N)N)NC(=O)[C@H](CO)NC(=O)[C@@H](NC(=O)[C@@H](Cc2ccccc2)NC)[C@@H](C)CC)[C@H](C)CC)[C@@H](C)CC)[C@H](C)OC(=O)[C@H]([C@@H](C)CC)NC1=O [Compound 46, D-Arg4-Nva10-teixobactin]
